{"source": "patent US20160158200A1", "about": "“Combinations of Hepatitis C Virus Inhibitors” (priority 2013, published 2016)", "test_system": "HCV genotype-1a variant with glutamine 30 changed to glutamate in the NS5A protein", "format": "cell-based", "conditions": "test compound titrated with BMS-790052 fixed at 200 nM; genotype 1a Q30E replicon", "summary_of_the_method": "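Synergy was assessed by combining several fixed amounts of an NS5A-targeting compound with a titration of the second compound of interest.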", "data": [{"smiles": "CCCC(=O)N[C@H](c1ncc(-c2ccc(-c3ccc(-c4cnc([C@@H](NC(=O)CCC)C(C)C)[nH]4)cc3)cc2)[nH]1)C(C)C", "note": "[Compound S-33]", "values": [{"measurement": "Fold-Synergistic 1a (Q30E)", "result": ">100", "unit": "fold"}]}, {"smiles": "CC(C)[C@H](NC(=O)c1cccs1)c1ncc(-c2ccc(-c3ccc(-c4cnc([C@@H](NC(=O)c5cccs5)C(C)C)[nH]4)cc3)cc2)[nH]1", "note": "[Compound S-14]", "values": [{"measurement": "Fold-Synergistic 1a (Q30E)", "result": ">100", "unit": "fold"}]}, {"smiles": "COC(C)(COCc1ccccc1)C(=O)N[C@H](c1nc(-c2ccc(-c3ccc(-c4c[nH]c([C@@H](NC(=O)C(C)(COCc5ccccc5)OC)C(C)(C)C)n4)cc3)cc2)c[nH]1)C(C)(C)C.O=C(O)C(F)(F)F.O=C(O)C(F)(F)F", "note": "(single isomer, unassigned) [Compound W-232]", "values": [{"measurement": "Fold-Synergistic 1a (Q30E)", "result": ">100", "unit": "fold"}]}, {"smiles": "CC(C)[C@H](NC(=O)c1ccc(C#N)s1)c1ncc(-c2ccc(-c3ccc(-c4cnc([C@@H](NC(=O)c5ccc(C#N)s5)C(C)(C)C)[nH]4)cc3)cc2)[nH]1", "note": "[Compound Y-45]", "values": [{"measurement": "Fold-Synergistic 1a (Q30E)", "result": ">100", "unit": "fold"}]}, {"smiles": "CC(C)(C)OC(=O)NC1(C(=O)N[C@H](c2nc(-c3ccc(-c4ccc(-c5c[nH]c([C@@H](NC(=O)C6(NC(=O)OC(C)(C)C)CCC6)C(C)(C)C)n5)cc4)cc3)c[nH]2)C(C)(C)C)CCC1.O=C(O)C(F)(F)F.O=C(O)C(F)(F)F", "note": "[Compound L-5]", "values": [{"measurement": "Fold-Synergistic 1a (Q30E)", "result": ">100", "unit": "fold"}]}, {"smiles": "CC(C)[C@H](NC(=O)c1ccc(F)cc1F)c1ncc(-c2ccc(-c3ccc(-c4cnc([C@@H](NC(=O)c5ccc(F)cc5F)C(C)C)[nH]4)cc3)cc2)[nH]1", "note": "[Compound S-89]", "values": [{"measurement": "Fold-Synergistic 1a (Q30E)", "result": ">100", "unit": "fold"}]}, {"smiles": "CC(C)[C@H](NC(=O)c1ccccc1Cl)c1ncc(-c2ccc(-c3ccc(-c4cnc([C@@H](NC(=O)c5ccccc5Cl)C(C)C)[nH]4)cc3)cc2)[nH]1", "note": "[Compound S-65]", "values": [{"measurement": "Fold-Synergistic 1a (Q30E)", "result": ">100", "unit": "fold"}]}, {"smiles": "CC(C)(C)OC(=O)N1C(C(=O)NC(c2nc(-c3ccc(-c4ccc(-c5c[nH]c(C(NC(=O)C6COC(C)(C)N6C(=O)OC(C)(C)C)C(C)(C)C)n5)cc4)cc3)c[nH]2)C(C)(C)C)COC1(C)C", "note": "[Compound L-55]", "values": [{"measurement": "Fold-Synergistic 1a (Q30E)", "result": ">100", "unit": "fold"}]}, {"smiles": "CC(C)(C)OC(=O)N1CCC(C(=O)N[C@H](c2nc(-c3ccc(-c4ccc(-c5c[nH]c([C@@H](NC(=O)C6CCN(C(=O)OC(C)(C)C)CC6)C(C)(C)C)n5)cc4)cc3)c[nH]2)C(C)(C)C)CC1", "note": "[Compound S-264]", "values": [{"measurement": "Fold-Synergistic 1a (Q30E)", "result": ">100", "unit": "fold"}]}, {"smiles": "CC1(C)CC(C(=O)N[C@H](c2nc(-c3ccc(-c4ccc(-c5c[nH]c([C@@H](NC(=O)C6CCOC(C)(C)C6)C(C)(C)C)n5)cc4)cc3)c[nH]2)C(C)(C)C)CCO1", "note": "(stereo partly drawn) [Compound W-122]", "values": [{"measurement": "Fold-Synergistic 1a (Q30E)", "result": ">100", "unit": "fold"}]}, {"smiles": "CC(C)N(CC(F)(F)F)C(=O)C(=O)N1CCC(C)(C)C1c1nc(-c2ccc(-c3ccc(-c4c[nH]c(C5N(C(=O)C(=O)N(CC(F)(F)F)C(C)C)CCC5(C)C)n4)cc3)cc2)c[nH]1", "note": "(stereo not drawn) [Compound W-236]", "values": [{"measurement": "Fold-Synergistic 1a (Q30E)", "result": ">100", "unit": "fold"}]}, {"smiles": "COC(=O)NC(C(=O)N1CCCC1c1ncc(-c2ccc(-c3ccc(-c4cnc(C(NC(=O)C5CCC(F)(F)CC5)C(C)(C)C)[nH]4)cc3)cc2)[nH]1)C(C)C", "note": "(stereo not drawn) [Compound B-192]", "values": [{"measurement": "Fold-Synergistic 1a (Q30E)", "result": ">10", "unit": "fold"}]}, {"smiles": "CC(C)[C@H](NC(=O)C(=O)C1(CF)CCC(F)(F)CC1)c1ncc(-c2ccc(-c3ccc(-c4cnc([C@@H](NC(=O)C(=O)C5(CF)CCC(F)(F)CC5)C(C)C)[nH]4)cc3)cc2)[nH]1", "note": "[Compound P-127]", "values": [{"measurement": "Fold-Synergistic 1a (Q30E)", "result": ">100", "unit": "fold"}]}, {"smiles": "CC(C)(C)[C@H](NC(=O)C12CCC(F)(CC1)CC2)c1nc(-c2ccc(-c3ccc(-c4c[nH]c([C@@H](NC(=O)C56CCC(F)(CC5)CC6)C(C)(C)C)n4)cc3)cc2)c[nH]1", "note": "[Compound P-40]", "values": [{"measurement": "Fold-Synergistic 1a (Q30E)", "result": ">100", "unit": "fold"}]}, {"smiles": "COC(C)(COCc1ccccc1)C(=O)N[C@H](c1nc(-c2ccc(-c3ccc(-c4c[nH]c([C@@H](NC(=O)C(C)(COCc5ccccc5)OC)C(C)(C)C)n4)cc3)cc2)c[nH]1)C(C)(C)C.O=C(O)C(F)(F)F.O=C(O)C(F)(F)F", "note": "(single isomer, unassigned) [Compound W-230]", "values": [{"measurement": "Fold-Synergistic 1a (Q30E)", "result": ">100", "unit": "fold"}]}, {"smiles": "CC(C)[C@H](NC(=O)c1cc(Cl)ccc1F)c1nc(-c2ccc(-c3ccc(-c4c[nH]c([C@@H](NC(=O)c5cc(Cl)ccc5F)C(C)C)n4)cc3F)cc2)c[nH]1.O=C(O)C(F)(F)F", "note": "[Compound N-99]", "values": [{"measurement": "Fold-Synergistic 1a (Q30E)", "result": ">100", "unit": "fold"}]}, {"smiles": "CC(C)(C)[C@H](NC(=O)C1(NC(=O)C2CC2)CCCCC1)c1nc(-c2ccc(-c3ccc(-c4c[nH]c([C@@H](NC(=O)C5(NC(=O)C6CC6)CCCCC5)C(C)(C)C)n4)cc3)cc2)c[nH]1", "note": "[Compound W-264]", "values": [{"measurement": "Fold-Synergistic 1a (Q30E)", "result": ">100", "unit": "fold"}]}, {"smiles": "CC(C)(C)[C@H](NC(=O)C(=O)N1CCC(F)(F)C1)c1nc(-c2ccc(-c3ccc(-c4c[nH]c([C@@H](NC(=O)C(=O)N5CCC(F)(F)C5)C(C)(C)C)n4)cc3)cc2)c[nH]1", "note": "[Compound W-22]", "values": [{"measurement": "Fold-Synergistic 1a (Q30E)", "result": ">100", "unit": "fold"}]}, {"smiles": "CC(C)(C)[C@H](NC(=O)C1(NCC(F)(F)F)CC1)c1nc(-c2ccc(-c3ccc(-c4c[nH]c([C@@H](NC(=O)C5(NCC(F)(F)F)CC5)C(C)(C)C)n4)cc3)cc2)c[nH]1", "note": "[Compound L-96]", "values": [{"measurement": "Fold-Synergistic 1a (Q30E)", "result": ">100", "unit": "fold"}]}, {"smiles": "CC(C)[C@H](NC(=O)C1(C)CCCCC1)c1ncc(-c2ccc(-c3ccc(-c4cnc([C@@H](NC(=O)C5(C)CCCCC5)C(C)C)[nH]4)c(OC(F)F)c3)cc2)[nH]1", "note": "[Compound Y-12]", "values": [{"measurement": "Fold-Synergistic 1a (Q30E)", "result": ">100", "unit": "fold"}]}, {"smiles": "CC1(C)CCN(C(=O)c2ccc(-c3ccccc3)cc2)C1c1nc(-c2ccc(-c3ccc(-c4c[nH]c(C5N(C(=O)c6ccc(-c7ccccc7)cc6)CCC5(C)C)n4)cc3)cc2)c[nH]1", "note": "(stereo not drawn) [Compound W-227]", "values": [{"measurement": "Fold-Synergistic 1a (Q30E)", "result": ">100", "unit": "fold"}]}, {"smiles": "CC1(C(=O)N2CCC[C@H]2c2ncc(-c3ccc(-c4ccc(-c5cnc([C@@H]6CCCN6C(=O)C6(C)CC6)[nH]5)cc4)cc3)[nH]2)CC1", "note": "[Compound S-160]", "values": [{"measurement": "Fold-Synergistic 1a (Q30E)", "result": "<10", "unit": "fold"}]}, {"smiles": "CC(C)[C@H](NC(=O)CC(F)(F)F)c1ncc(-c2ccc(-c3ccc(-c4cnc([C@@H](NC(=O)CC(F)(F)F)C(C)C)[nH]4)cc3)cc2)[nH]1", "note": "[Compound S-53]", "values": [{"measurement": "Fold-Synergistic 1a (Q30E)", "result": ">100", "unit": "fold"}]}, {"smiles": "CC(C)C(NC(=O)C(C)(C)C(O)C1CC1)c1nc(-c2ccc(-c3ccc(-c4c[nH]c(C(NC(=O)C(C)(C)C(O)C5CC5)C(C)C)n4)cc3)cc2)c[nH]1", "note": "(mixture of isomers) [Compound N-149]", "values": [{"measurement": "Fold-Synergistic 1a (Q30E)", "result": ">100", "unit": "fold"}]}, {"smiles": "CC(C)[C@H](NC(=O)C(C)(C)N1C[C@@H](C)O[C@@H](C)C1)c1nc(-c2ccc(-c3ccc(-c4c[nH]c([C@@H](NC(=O)C(C)(C)N5C[C@@H](C)O[C@@H](C)C5)C(C)C)n4)cc3)cc2)c[nH]1", "note": "[Compound W-161]", "values": [{"measurement": "Fold-Synergistic 1a (Q30E)", "result": ">100", "unit": "fold"}]}, {"smiles": "CO[C@H](C(=O)N[C@H](c1nc(-c2ccc(-c3ccc(-c4c[nH]c([C@@H](NC(=O)[C@@H](OC)c5ccccc5)C(C)(C)C)n4)cc3)cc2)c[nH]1)C(C)(C)C)c1ccccc1", "note": "[Compound P-18]", "values": [{"measurement": "Fold-Synergistic 1a (Q30E)", "result": ">100", "unit": "fold"}]}, {"smiles": "CC(C)C(NC(=O)C1CC(F)CN1C(=O)OC(C)(C)C)c1nc(-c2ccc(-c3ccc(-c4c[nH]c(C(NC(=O)C5CC(F)CN5C(=O)OC(C)(C)C)C(C)C)n4)cc3)cc2)c[nH]1", "note": "(stereo not drawn) [Compound W-181]", "values": [{"measurement": "Fold-Synergistic 1a (Q30E)", "result": ">100", "unit": "fold"}]}]}
